Values of other authors in US20130237424A1 (Cosmo Oil Co., LTD., priority 2010, published 2013).

Test system: plants
Conditions: given with being dissolved in a solution

In the case of `NCC(=O)CCC(=O)O` [5-aminolevulinic acid], the “duration of growth promoting effect” value is listed as “about 2 weeks”.
